Results on two compounds are retold here after US20120172451A1, “CLEANING LIQUID” (priority 2010, published 2012).

This data set can be described thus: pH measurement. The data set is classed as physicochemical. An excerpt:
All measurements of pH and temperature mentioned in this specification were taken on a Hanna Instruments Ltd. device, with the model no. HI98127 (a waterproof pH and ° C./° F. probe). The measurements of pH and temperature could be taken on other generally available pH and temperature probes.

With `O=P(O)(O)O` [phosphoric acid], the pH entry (1 mol/L at 20° C.) is “around 1.08”.

Where the note is “50 g/l at 20° C.”, `O=C(O)CC(O)(CC(=O)O)C(=O)O` [citric acid] had a pH of 1.8.
